Assay results taken from paper PMC2883571, “Quercetin Targets Cysteine String Protein (CSPα) and Impairs Synaptic Transmission” (PLoS ONE, 2010).

T1: purified recombinant rat CSPα (Rattus norvegicus, UniProt P60905)
T1 construct: gene Dnajc5; purified recombinant soluble CSPα
T1 sequence (P60905 1-198): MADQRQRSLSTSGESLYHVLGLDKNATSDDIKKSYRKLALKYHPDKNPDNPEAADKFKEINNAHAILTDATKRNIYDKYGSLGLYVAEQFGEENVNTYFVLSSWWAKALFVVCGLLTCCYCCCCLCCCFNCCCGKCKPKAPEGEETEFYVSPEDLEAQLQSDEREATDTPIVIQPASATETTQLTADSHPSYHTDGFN

T2: c-myc-CSPα (Rattus norvegicus, UniProt P60905)
T2 construct: gene Dnajc5; full-length CSPα1-198, c-myc tag kept; transient expression in CAD mouse neuroblastoma cells; palmitoylated monomer ~34 kDa, dimer ~72 kDa
T2 sequence (P60905 1-198): T1 sequence (P60905 1-198)

B1: c-myc tagged rat CSPα_(1–198) (cysteine string protein) (natural protein, UniProt P60905 1-198, looked up)
chain: T1 sequence (P60905 1-198)
modifications: both unmodified and palmitoylated (extensive fatty acylation) species seen
notes: cysteine string protein alpha (CSPα), rat, residues 1-198; also called c-myc-CSPα; source: CAD mouse neuroblastoma cells, transiently transfected, in lysate

What was measured:
[1] = biological target: T1, purified recombinant rat CSPα; assay: SDS-resistant dimerization of purified protein, SDS-PAGE; assay type: binding; settings: 24 h incubation; concentration series
[2] = biological target: T2, c-myc-CSPα; assay: CSPα dimer in transfected CAD cells, anti-myc Western blot; assay type: cell-based; settings: 24 h treatment of intact cells, cysteine string region
[3] = biological target: the molecule itself; assay: SDS-resistant dimer on SDS-PAGE with Western blot; lysates of transiently transfected CAD cells, control or treated 24 h with quercetin (up to 200 µM), EGCG or other agents; 30-40 µg protein in SDS sample buffer at 37°C or 80°C; dimer at ∼72 kDa

Row | Molecule | CSPα dimer formation [1] | fold CSPα dimer vs control at 100 μM [2] [fold] | fold dimer with 100 µM quercetin at 24 hrs over control [3] [fold]
1 | O=c1c(O)c(-c2ccc(O)c(O)c2)oc2cc(O)cc(O)c12 [quercetin, 3,3′,4′,5,7-pentapentahydroxyflavone] | quercetin triggered dimerization of recombinant CSPα in a concentration dependent manner | 4 | 
2 | B1 |  |  | 4
